Data set [1] can be described thus: Lipophilicity (Log P) of the nicotinic ester of DHA. Type of data set: physicochemical. On the procedure:
(§1) It is a very lipophilic compound (Log P approximately 7), wherein the solubility at equilibrium in water is <1 μg/ml. It is thus particularly difficult to formulate for parenteral administration.

The nature of data set [2]: Solubility at equilibrium in water. Type of data set: physicochemical. Conditions: thermodynamic from solid. On the procedure:
as §1

These results are taken from US8753652B2, “Pharmaceutical composition including a DHA ester to be administered parenterally” (Pierre Fabre Medicament, priority 2009, dated 2014).

Molecules are shown by their SMILES.

Usually logP stands for the decadic logarithm of the partition coefficient of the neutral form, usually between octanol and water. A lower logP goes with a more hydrophilic compound. As a reminder, the solubility is how much of the substance goes into solution per volume. Low readings indicate a poorly soluble substance, high ones a readily soluble substance. `CC/C=C\C/C=C\C/C=C\C/C=C\C/C=C\C/C=C\CCC(=O)OCc1cccnc1` [nicotinic ester of DHA, pyridin-3-ylmethyl-cis-4,7,10,13,16,19-docosahexaenoic acid] came in with a logP in data set [1] of about 7. Also, the solubility in data set [2] was under 1 µg/mL.
